These results are taken from US9492453B2 (priority 2007, dated 2016).

Data set [1] can be described thus: Human dose prediction (estimated human pharmacokinetic parameters). The following applies: plasma; from rat and dog Vss corrected by Fu, human/Fu (rat or dog); read-out: Human Vss (Volume of Distribution at Steady State), estimated.
The next data set has as its system PKB (Akt). As to conditions: read-out: Cellular PKB Mean IC50; MDA-MB-468 cells, phosphorylation of Serine-9 of GSK-3β, 2 hours incubation.
The target of another data set is AKT1 (PKBα) (Homo sapiens (Human), UniProt P31749). The following applies: read-out: In vitro PKBα Mean IC50, AKT1/PKBα active enzyme, Caliper LabChip LC3000.

SMILES strings stand for the structures. Where two headings read alike, the source gives them in different places.

Sequence of AKT1 (PKBα) (P31749 whole entry): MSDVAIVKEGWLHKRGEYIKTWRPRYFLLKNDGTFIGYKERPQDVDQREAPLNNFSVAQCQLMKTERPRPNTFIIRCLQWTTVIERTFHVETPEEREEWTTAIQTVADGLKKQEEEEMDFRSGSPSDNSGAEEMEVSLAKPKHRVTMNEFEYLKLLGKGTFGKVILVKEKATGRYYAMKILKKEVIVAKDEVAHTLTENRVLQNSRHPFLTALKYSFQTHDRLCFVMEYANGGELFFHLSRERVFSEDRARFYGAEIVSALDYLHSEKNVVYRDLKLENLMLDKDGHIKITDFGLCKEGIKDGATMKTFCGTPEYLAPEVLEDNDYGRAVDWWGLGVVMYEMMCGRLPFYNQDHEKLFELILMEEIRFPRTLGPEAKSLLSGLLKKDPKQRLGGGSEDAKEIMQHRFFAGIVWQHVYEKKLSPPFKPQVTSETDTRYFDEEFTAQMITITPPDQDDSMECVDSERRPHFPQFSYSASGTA

With `NC1(C(=O)N[C@@H](CCO)c2ccc(Cl)cc2)CCN(c2ncnc3[nH]ccc23)CC1` [Example 9, (S)-4-amino-N-(1-(4-chlorophenyl)-3-hydroxypropyl)-1-(7H-pyrrolo[2,3-d]pyrimidin-4-yl)piperidine-4-carboxamide], the Vd in data set [1] was 3.3 L/kg.
`NCC1(C(=O)N[C@@H](CCO)c2ccc(Cl)cc2)CCN(c2ncnc3[nH]ccc23)CC1` [Example 23, (S)-4-(aminomethyl)-N-(1-(4-chlorophenyl)-3-hydroxypropyl)-1-(7H-pyrrolo[2,3-d]pyrimidin-4-yl)piperidine-4-carboxamide]: the values for the IC50 with PKB (Akt) and at AKT1 (PKBα) were 80 nM and 1.3 nM, respectively.
As to `N#Cc1ccc([C@H](CCO)NC(=O)C2(N)CCN(c3ncnc4[nH]ccc34)CC2)cc1` [Example 18, (S)-4-amino-N-(1-(4-cyanophenyl)-3-hydroxypropyl)-1-(7H-pyrrolo[2,3-d]pyrimidin-4-yl)piperidine-4-carboxamide], the half-inhibitory concentration (IC50) in the data set with PKB (Akt) was determined as 1400 nM; on AKT1 (PKBα) it was 16 nM.
As for `Cc1cc(CC(NC(=O)C2(N)CCN(c3ncnc4[nH]ccc34)CC2)c2ccc(Cl)cc2)on1` (stereo not drawn) [Example 61, 4-amino-N-[1-(4-chlorophenyl)-2-(3-methylisoxazol-5-yl)ethyl]-1-(7H-pyrrolo[2,3-d]pyrimidin-4-yl)piperidine-4-carboxamide], the IC50 in the data set on PKB (Akt) was determined as 850 nM; at AKT1 (PKBα) it was 23 nM.
In the case of `Cc1c[nH]c2ncnc(N3CCC(N)(C(=O)N[C@@H](C)c4ccc(Cl)cc4)CC3)c12` [Example 37, 4-amino-N-[(1S)-1-(4-chlorophenyl)ethyl]-1-(5-methyl-7H-pyrrolo[2,3-d]pyrimidin-4-yl)piperidine-4-carboxamide], the IC50 in the data set with PKB (Akt) is 550 nM; at AKT1 (PKBα) it was 19 nM.
In the case of `NC1(C(=O)N[C@@H](CCO)c2ccc(Cl)cc2)CCN(c2ncnc3[nH]cc(Cl)c23)CC1` [Example 34, 4-amino-N-[(1S)-1-(4-chlorophenyl)-3-hydroxypropyl]-1-(5-chloro-7H-pyrrolo[2,3-d]pyrimidin-4-yl)piperidine-4-carboxamide], the IC50 was found to be 350 nM with PKB (Akt) and 9.2 nM on AKT1 (PKBα).
The like results for `C[C@H](NC(=O)C1(N)CCN(c2ncnc3[nH]cc(Br)c23)CC1)c1ccc(Cl)cc1` [Example 35, 4-amino-1-(5-bromo-7H-pyrrolo[2,3-d]pyrimidin-4-yl)-N-[(1S)-1-(4-chlorophenyl)ethyl]piperidine-4-carboxamide] were, in that order, 280 nM and 4 nM.
For the compound `C[C@H](NC(=O)C1(CN)CCN(c2ncnc3[nH]ccc23)CC1)c1ccc(Cl)cc1` [Example 6, (S)-4-(aminomethyl)-N-(1-(4-chlorophenyl)ethyl)-1-(7H-pyrrolo[2,3-d]pyrimidin-4-yl)piperidine-4-carboxamide], the values for the IC50 in the data set with PKB (Akt) and at AKT1 (PKBα) were 20 nM and 1.2 nM, respectively.
Consider `NC(=O)CC(NC(=O)C1(N)CCN(c2ncnc3[nH]ccc23)CC1)c1ccc(Cl)cc1` (stereo not drawn) [Example 66, 4-amino-N-(3-amino-1-(4-chlorophenyl)-3-oxopropyl)-1-(7H-pyrrolo[2,3-d]pyrimidin-4-yl)piperidine-4-carboxamide], for which the IC50 with PKB (Akt) was found to be 990 nM; on AKT1 (PKBα) (tested once only), 6.6 nM.
The like results for `NC1(C(=O)N[C@@H](CCO)c2ccccc2)CCN(c2ncnc3[nH]ccc23)CC1` [Example 21, (S)-4-amino-N-(3-hydroxy-1-phenylpropyl)-1-(7H-pyrrolo[2,3-d]pyrimidin-4-yl)piperidine-4-carboxamide] were, in that order, above 3100 nM and 59 nM.
On to `NC1(C(=O)N[C@@H](CCO)c2ccc(Cl)cc2)CCN(c2ncnc3[nH]ncc23)CC1` [Example 20, (S)-4-amino-N-(1-(4-chlorophenyl)-3-hydroxypropyl)-1-(1H-pyrazolo[3,4-d]pyrimidin-4-yl)piperidine-4-carboxamide], for which the IC50 in the data set on PKB (Akt) amounted to 980 nM; at AKT1 (PKBα) (tested once only), 20 nM.
As for `NC1(C(=O)N[C@@H](CCO)c2ccc(Cl)cc2)CCN(c2ncnc3[nH]cnc23)CC1` [Example 22, (S)-4-amino-N-(1-(4-chlorophenyl)-3-hydroxypropyl)-1-(9H-purin-6-yl)piperidine-4-carboxamide], the half-maximal inhibitory concentration (IC50) in the data set with PKB (Akt) worked out at 170 nM; on AKT1 (PKBα) it was 7.5 nM.
The matching figures for `C[C@H](NC(=O)C1(N)CCN(c2ncnc3[nH]cc(Cl)c23)CC1)c1ccc(Cl)cc1` [Example 32, 4-amino-N-[(1S)-1-(4-chlorophenyl)ethyl]-1-(5-chloro-7H-pyrrolo[2,3-d]pyrimidin-4-yl)piperidine-4-carboxamide]: 420 nM and 12 nM.
Turning to `NC1(C(=O)N[C@@H](CCO)c2ccc(Cl)cc2)CCN(c2ncnc3[nH]nc(Br)c23)CC1` [Example 33, 4-amino-1-(3-bromo-1H-pyrazolo[3,4-d]pyrimidin-4-yl)-N-[(1S)-1-(4-chlorophenyl)-3-hydroxypropyl]piperidine-4-carboxamide], the IC50 worked out at 240 nM with PKB (Akt) and 14 nM on AKT1 (PKBα).
